ChEMBL document CHEMBL1145322, “Synthesis and anthelmintic activity of substituted (R)-phenyllactic acid containing cyclohexadepsipeptides” (Bioorg Med Chem Lett, 2006)

What was measured:
[1] = Partition coefficient, log P of the compound; format: physicochemical; conditions: octanol/water
[2] = tested on: Haemonchus contortus; experiment: Anthelmintic activity against Haemonchus contortus in infected sheep assessed as reduction in faecal egg at 0.05 mg/kg, po; format: functional, Feces; parameters: scale not given: the % may be the effect or the level left
[3] = tested on: Haemonchus contortus; experiment: Anthelmintic activity against Haemonchus contortus in infected sheep assessed as reduction in faecal egg at 0.10 mg/kg, po; format: functional, Feces; parameters: scale not given: the % may be the effect or the level left; conditions: dose 0.1 mg/kg
[4] = tested on: Haemonchus contortus; experiment: Anthelmintic activity against Haemonchus contortus in infected sheep assessed as reduction in faecal egg at 0.25 mg/kg, po; format: functional, Feces; parameters: scale not given: the % may be the effect or the level left

Structure (SMILES)	logP [1]	Activity [2]	Activity [3]	Activity [4]
CCC(C)[C@H]1C(=O)O[C@H](C)C(=O)N(C)[C@@H](C)C(=O)O[C@H](C)C(=O)N(C)[C@@H](C(C)CC)C(=O)O[C@H](C)C(=O)N1C (stereo partly drawn)	3.26	>=95%	–	–
CC[C@@H](C)[C@H]1C(=O)O[C@H](Cc2ccccc2N)C(=O)N(C)[C@@H]([C@H](C)CC)C(=O)O[C@H](C)C(=O)N(C)[C@@H](C)C(=O)O[C@H](C)C(=O)N1C	3.18	>=95%	–	–
CC[C@@H](C)[C@H]1C(=O)O[C@H](Cc2ccc(N3CCOCC3)cc2)C(=O)N(C)[C@@H]([C@H](C)CC)C(=O)O[C@H](C)C(=O)N(C)[C@@H](C)C(=O)O[C@H](C)C(=O)N1C	3.58	–	>=95%	–
CC[C@@H](C)[C@H]1C(=O)O[C@H](Cc2cccc(N)c2)C(=O)N(C)[C@@H]([C@H](C)CC)C(=O)O[C@H](C)C(=O)N(C)[C@@H](C)C(=O)O[C@H](C)C(=O)N1C	2.35	>=95%	–	–
CC[C@@H](C)[C@H]1C(=O)O[C@H](Cc2ccc(N)cc2)C(=O)N(C)[C@@H]([C@H](C)CC)C(=O)O[C@H](C)C(=O)N(C)[C@@H](C)C(=O)O[C@H](C)C(=O)N1C	2.08	–	50%	–
CC[C@@H](C)[C@H]1C(=O)O[C@H](Cc2ccccc2)C(=O)N(C)[C@@H]([C@H](C)CC)C(=O)O[C@H](C)C(=O)N(C)[C@@H](C)C(=O)O[C@H](C)C(=O)N1C	4.23	–	–	<=50%
CC[C@@H](C)[C@H]1C(=O)O[C@H](Cc2ccc([N+](=O)[O-])cc2)C(=O)N(C)[C@@H]([C@H](C)CC)C(=O)O[C@H](C)C(=O)N(C)[C@@H](C)C(=O)O[C@H](C)C(=O)N1C	–	–	50%	–
